Assay: Human HepG2 cell viability assay in 384 well format
Assay type: toxicity, cell-based
Design: dose 125 nL, time 70.5 hour; cytotoxicity at 70.5 h: concentration not given beside the values
Settings: HepG2 cells, read-out: Inhibition

## CC(CC#N)N(C)Cc1ccccc1F (stereo not given)
  cytotoxicity at 70.5 h: -9.07%

## Cc1oc(CN(C)C(=O)c2ccc(C(F)(F)F)cc2)cc1C(=O)O
  cytotoxicity at 70.5 h: -6.23%

## Cc1cc(CN(Cc2ccccc2)C(C)CN2CCOCC2)no1 (stereo not given)
  cytotoxicity at 70.5 h: -5.58%

## CNC(=O)c1cccc(CNC(C)c2cc(Cl)ccc2OC)c1 (stereo not given)
  cytotoxicity at 70.5 h: -2.03%

## Fc1ccc(NCc2ncc[nH]2)cc1Br
  cytotoxicity at 70.5 h: -7.28%

## CNC(=O)C(C)(C)CNC(=O)Nc1cc(C)ccn1
  cytotoxicity at 70.5 h: -7.88%

## CC(C)c1nc2n(n1)CC(NCC(=O)N(C)Cc1cccs1)CC2 (stereo not given)
  cytotoxicity at 70.5 h: -13.3%

## CC(=O)OCC1CCCCN1C(=O)c1ccc(Cn2ccnc2)o1 (stereo not given)
  cytotoxicity at 70.5 h: 22.8%

## Cn1cc(C(C)(O)CNC(=O)c2ccc(Br)s2)cn1 (stereo not given)
  cytotoxicity at 70.5 h: 48.4%

## N#Cc1cccc(OCC(=O)N(Cc2ccncc2)C2CC2)c1
  cytotoxicity at 70.5 h: -10.3%

## CCS(=O)(=O)N1CCN(C(C)c2ccccc2OC)CC1 (stereo not given)
  cytotoxicity at 70.5 h: -10.2%

## CC(=O)N1CCCc2cc(NC(=O)NCCc3cnn(C)c3)ccc21
  cytotoxicity at 70.5 h: -2.87%

## Cc1ccccc1C(C)(C)CNC(=O)CN(C)c1cnccn1
  cytotoxicity at 70.5 h: -0.621%

## CCOC1CCCN(C(=O)Nc2cnn(CC(F)F)c2)C1 (stereo not given)
  cytotoxicity at 70.5 h: -9.21%

## c1nc(N2CCN(Cc3nnnn3C3CC3)CC2)c2sccc2n1
  cytotoxicity at 70.5 h: 2.44%

## Cc1nsc(N2CCc3sccc3C2)n1
  cytotoxicity at 70.5 h: -1.49%

## OCC1CN(Cc2nc(C(F)(F)F)cs2)c2ccccc2O1 (stereo not given)
  cytotoxicity at 70.5 h: -9.55%

## Cc1nc(CN2CC(CO)Oc3ccccc32)sc1C (stereo not given)
  cytotoxicity at 70.5 h: -3.25%

## CC(C)C1CN(C(=O)Nc2cnn(CC(F)F)c2)CCS1 (stereo not given)
  cytotoxicity at 70.5 h: 5.93%

## CN(C)S(=O)(=O)c1ccc(CN2CCC(c3ccccc3)C2)o1 (stereo not given)
  cytotoxicity at 70.5 h: 4.6%

## Cc1cccc(C(C)(C)CNC(=O)CN(C)c2cnccn2)c1
  cytotoxicity at 70.5 h: -2.49%

## O=C(Cc1ccon1)NC1CCCN(c2ccccc2F)C1=O (stereo not given)
  cytotoxicity at 70.5 h: 3.76%

## NCc1ccnc(Oc2ccccc2)c1
  cytotoxicity at 70.5 h: -8.2%

## Cc1noc(C)c1CCc1nc(C2CCOC2)no1 (stereo not given)
  cytotoxicity at 70.5 h: -11.1%

## CN1CC(C(=O)NCCc2ccc3c(c2)OCO3)CC1=O (stereo not given)
  cytotoxicity at 70.5 h: -8.14%

## NC(=O)NC(CC(=O)N1CCc2sccc2C1)c1ccccc1F (stereo not given)
  cytotoxicity at 70.5 h: -17.5%

## Cn1ncc2c1CCCC2NCc1cccnc1 (stereo not given)
  cytotoxicity at 70.5 h: -18.9%

## CC(c1nnc(-c2ccccc2)o1)N1CCC(Nc2ccccc2)CC1 (stereo not given)
  cytotoxicity at 70.5 h: 8.58%

## O=C(CNc1ccc(OCC2CCOCC2)cc1)NCc1ccco1
  cytotoxicity at 70.5 h: -20.8%

## CSc1ccc(OCCN2CCNC(=O)CC2)cc1
  cytotoxicity at 70.5 h: -7.88%

## COCCOc1ncccc1NCc1nc2ccccc2n1C
  cytotoxicity at 70.5 h: -15.1%

## CC(C)(C)Oc1ccc(NCC(=O)NCc2ccco2)cc1
  cytotoxicity at 70.5 h: -18.5%

## Cc1noc(CCCc2nc(C3CCOC3)no2)n1 (stereo not given)
  cytotoxicity at 70.5 h: -18.7%

## COc1ccccc1CN(Cc1nc(Cc2ccccc2)no1)C1CC1
  cytotoxicity at 70.5 h: -10.7%

## COCc1nn(Cc2ccc(Cl)s2)c(=O)o1
  cytotoxicity at 70.5 h: -13.7%

## CC(C)c1nc(C2CCCN2CCNS(C)(=O)=O)no1 (stereo not given)
  cytotoxicity at 70.5 h: -19.2%

## CC(NCC(=O)N1CCc2sccc2C1)c1ccccc1F (stereo not given)
  cytotoxicity at 70.5 h: -15.8%

## O=C1C(N2CCOCC2)CCCN1Cc1cccc(C(F)(F)F)c1 (stereo not given)
  cytotoxicity at 70.5 h: -17.4%

## O=C1C(N2CC[C@@H](O)C2)CCCN1Cc1cccc(C(F)(F)F)c1 (stereo not given in full)
  cytotoxicity at 70.5 h: -18.9%

## NCc1ccnc(Oc2ccc(F)cc2)c1
  cytotoxicity at 70.5 h: -17%

## CC(=O)N1CCCN(C(=O)NCCCNS(C)(=O)=O)CC1
  cytotoxicity at 70.5 h: 9.32%

## CC(=O)N1CCN(C(=O)NCCCN(C(C)C)S(C)(=O)=O)CC1
  cytotoxicity at 70.5 h: -8.44%

## Cc1cnn(C2CN(Cc3noc(C4CC4)n3)C2)c1
  cytotoxicity at 70.5 h: -4.77%

## CSCCC(NC(N)=O)C(=O)N1CCC(Cc2ccccc2)CC1 (stereo not given)
  cytotoxicity at 70.5 h: -3.12%

## COc1cccc(N2CCC(CNc3cc(C)nc4ncnn34)C2)c1 (stereo not given)
  cytotoxicity at 70.5 h: -1.68%

## CC(NC(=O)C1(NC(=O)c2ccc3[nH]ncc3c2)CCCC1)C1CC1 (stereo not given)
  cytotoxicity at 70.5 h: -5.24%

## N#Cc1cccc(S(=O)(=O)NC(=O)CCOCC(F)(F)F)c1
  cytotoxicity at 70.5 h: -3.71%

## COc1c(C(=O)N2CCC(CSc3ccccc3)C2)c(C)nn1C (stereo not given)
  cytotoxicity at 70.5 h: 1.84%

## C[S+]([O-])CCNC(=O)Nc1cc(F)ccc1-n1cccn1 (stereo not given)
  cytotoxicity at 70.5 h: 15.9%

## CS(=O)(=O)N1CCC(Nc2ccnc3ccc(Cl)cc23)CC1
  cytotoxicity at 70.5 h: -3.71%

## CN(CCc1ccc2c(c1)CCO2)C1CCS(=O)(=O)CC1
  cytotoxicity at 70.5 h: 16.1%

## Cc1ccc(S(C)(=O)=O)cc1C(=O)NS(C)(=O)=O
  cytotoxicity at 70.5 h: -7.69%

## CCc1ccc(CC)c(NCC(=O)N2CCCC(NC(C)=O)C2)c1 (stereo not given)
  cytotoxicity at 70.5 h: -6.55%

## CCC(C)NS(=O)(=O)Cc1cccc(NC(=O)C(C)C)c1 (stereo not given)
  cytotoxicity at 70.5 h: -2.19%

## CC(=O)NC1CCCN(C(=O)CNc2cc(Cl)cc(Cl)c2)C1 (stereo not given)
  cytotoxicity at 70.5 h: -5.65%

## COc1ccc(C)c(NC(=O)NCc2cccc(N(C)C)n2)c1
  cytotoxicity at 70.5 h: -6.19%

## COCc1c(Cl)cccc1NC(=O)NCc1cccc(N(C)C)n1
  cytotoxicity at 70.5 h: 1.02%

## CSc1ccc(CNC2CCCc3c2cnn3C)cc1 (stereo not given)
  cytotoxicity at 70.5 h: -8.39%

## CC(C)(C)c1n[nH]cc1CNC1CCC(OCC(F)(F)F)CC1 (stereo not given)
  cytotoxicity at 70.5 h: -11.2%

## CN(CCc1ccccn1)C(=O)c1cccs1
  cytotoxicity at 70.5 h: -2.46%

Source: ChEMBL document CHEMBL3507680, “University of Dundee, Gates Library screen for HepG2 cell viability”
